Drawing on patent US8710091B2, “Imidazolidine-2,4-dione derivatives, and use thereof as a cancer drug” (Ipsen Pharma S.A.S., priority 2009, dated 2014), this text covers IC50 for 18 molecules.

Assay [1] has as its system DU145 cells. Briefly: Antiproliferative activity on DU-145 in complete medium (WST-1). Type of assay: cell-based. Particulars: Homo sapiens, 144 h incubation, read-out: IC50 on the DU145 cells in culture (concentration inhibiting cell proliferation by 50%). On the procedure:
The anti-proliferative activity of the compounds of the present invention is determined on DU-145 in complete medium.
Maintenance of the DU-145 line is carried out in DMEM, 10% of foetal calf serum, 2 mM of glutamine, 100 U/ml of penicillin, 0.1 mg/ml of streptomycin. • Seeding the plates: • The DU145 line is seeded at 400 or 800 cells/well in 90 μl of DMEM complete medium in 96-well plates (TPP). • Treatment of the cells: 24 h after the seeding, the cells are treated with 10 μl/well of compound diluted in the culture medium. Experiments showing the dose-effect of the compound are carried out on a scale of 1 nM to 100 μM. The concentrations used are the following: 1 nM/10/30/100/300/1000/3000/10,000/100,000 nM. The cells are incubated for 144 h at 37° C., 5% CO2. • Reading: On D6, 10 μL, of cell proliferation reagent WST-1 (Roche ref 1644807) is added to each well. After incubation for 2 to 4 hours at 37° C., 5% CO2, the absorbance at 450 nm is measured by spectrophotometry (Envision, Perkin Elmer). • Results: The experiments are carried out in duplicate and the best compounds are tested twice. […] 4. Measurement of the Disappearance of the Androgen Receptor
Background: Tetrazolium assays rely on reduction of a dye to a coloured formazan, in cell work by metabolically active cells.

Assay [2] relates to LNCaP cells. Kind of assay: Anti-proliferative activity on LNCaP in complete medium (WST-1). It counts as cell-based. As to conditions: Homo sapiens, 144 h, 144 h incubation, read-out: IC50 on the LNCaP cells in culture (concentration inhibiting cell proliferation by 50%). The procedure: The anti-proliferative activity of the compounds of the present invention is determined on LNCaP in complete medium by applying the following experimental procedure:
The LNCaP cell type (ATCC, 1740) originating from a prostate carcinoma expressing the androgen receptor, this line is hormone-dependent.
Maintenance of the LNCaP line is carried out in complete culture medium: RPMI, 10% of foetal calf serum, 2 mM glutamine, 100 U/ml penicillin, 0.1 mg/ml of streptomycin and 0.01M HEPES, 1 mM sodium pyruvate, 40% of D-glucose. • Seeding the plates:
The LNCaP line is seeded at 20,000 cells/well in 90 μl of complete medium in 96-well plates coated with poly-D-lysine (Biocoat, Costar). • Treatment of the cells: 24 h after the seeding, the cells are treated with 10 μl/well of compound diluted in the culture medium. Experiments of the effect of doses of the compound are carried out on a scale of 1 nM to 100 µM. The concentrations used are the following: 1 nM/10/30/100/300/1000/3000/10,000/100,000 nM. Testosterone (SIGMA T1500) is used as a reference and tested at the same concentrations. The cells are incubated for 144 h at 37° C., 5% CO2. • Reading: On D6, 10 μL of the “WST-1 cell proliferation” reagent (Roche ref 1644807) is added to each well. After incubation for 2 hours at 37° C., 5% CO2, the absorbance at 450 nm is measured by spectrophotometry (Envision, Perkin Elmer). • Results: The experiments are carried out in duplicate and the best compounds are tested twice. […] 2. Antiproliferative Activity on LNCaP in Medium without Steroids: […]

Where only a bound is given, the exact number is not on record here.

Turning to `CC(=O)Nc1ccc(N2C(=O)N(CCOCCOCC[S+]([O-])CCCC(F)(F)C(F)(F)F)C(C)(C)C2=O)cc1C(F)(F)F` (stereo not drawn) [Example 39, N-[4-{4,4-dimethyl-2,5-dioxo-3-[2-(2-{2-[(4,4,5,5,5-pentafluoropentyl)sulphinyl]ethoxy}ethoxy)ethyl]imidazolidin-1-yl}-2-(trifluoromethyl)phenyl]acetamide], the IC50 in assay [1] is over 10 µM.
Regarding `CC(=O)Nc1ccc(N2C(=O)N(CCOCCOCCSCCCC(F)(F)C(F)(F)F)C(C)(C)C2=O)cc1C(F)(F)F` [Example 38, N-[4-{4,4-dimethyl-2,5-dioxo-3-[2-(2-{2-[(4,4,5,5,5-pentafluoropentyl)sulphanyl]ethoxy}ethoxy)ethyl]imidazolidin-1-yl}-2-(trifluoromethyl)phenyl]acetamide], in assay [1], the IC50 was over 10 µM.
The same measure, in the same setting: to `CC1(C)C(=O)N(c2ccc(N)c(C(F)(F)F)c2)C(=O)N1CCCCCCCCCSCCCC(F)(F)C(F)(F)F` [Example 16, 3-[4-amino-3-(trifluoromethyl)phenyl]-5,5-dimethyl-1-{9-[(4,4,5,5,5-pentafluoropentyl)thio]nonyl}imidazolidine-2,4-dione] belongs over 10 µM.
Regarding `CCC(C)NC(=O)Nc1ccc(N2C(=O)N(CCCCCCCCC[S+]([O-])CCCC(F)(F)C(F)(F)F)C(C)(C)C2=O)cc1C` (stereo not drawn) [Example 28, 1-[4-(4,4-dimethyl-2,5-dioxo-3-{9-[(4,4,5,5,5-pentafluoropentyl)sulphinyl]nonyl}imidazolidin-1-yl)-2-methylphenyl]-3-(1-methylpropyl)urea], the IC50 was under 2 µM in assay [2] and over 10 µM in assay [1].
For the molecule `CN(C)CC(=O)Nc1ccc(N2C(=O)N(CCCCCCCCCSCCCC(F)(F)C(F)(F)F)C(C)(C)C2=O)cc1C(F)(F)F` [Example 42, N-[4-(4,4-dimethyl-2,5-dioxo-3-{9-[(4,4,5,5,5-pentafluoropentyl)sulphanyl]nonyl}imidazolidin-1-yl)-2-(trifluoromethyl)phenyl]-N^2,N^2-dimethylglycinamide], the IC50 in assay [2] is under 2 µM; in assay [1], over 10 µM.
Regarding `CC1(C)C(=O)N(c2ccc([N+](=O)[O-])c(C(F)(F)F)c2)C(=O)N1CCCCCCCCCS(=N)(=O)CCCC(F)(F)C(F)(F)F` (stereo not drawn) [Example 46, 5,5-dimethyl-3-[4-nitro-3-(trifluoromethyl)phenyl]-1-{9-[S-(4,4,5,5,5-pentafluoropentyl)sulphonimidoyl]nonyl}imidazolidine-2,4-dione], the IC50 in assay [2] was under 2 µM.
With `CC1(C)C(=O)N(c2ccc([N+](=O)[O-])c(C(F)(F)F)c2)C(=O)N1CCCCCCCCC[S+]([O-])CCC(F)(F)C(F)(F)C(F)(F)C(F)(F)F` (stereo not drawn) [Example 15, 5,5-dimethyl-3-[4-nitro-3-(trifluoromethyl)phenyl]-1-{9-[(3,3,4,4,5,5,6,6,6-nonafluorohexyl)sulphinyl]nonyl}imidazolidine-2,4-dione], the IC50 is under 2 µM in assay [2] and over 10 µM in assay [1].
With `CC1(C)C(=O)N(c2ccc([N+](=O)[O-])c(C(F)(F)F)c2)C(=O)N1CCCCCCCCCCSCCCC(F)(F)C(F)(F)F` [Example 8, 5,5-dimethyl-3-[4-nitro-3-(trifluoromethyl)phenyl]-1-{10-[(4,4,5,5,5-pentafluoropentyl)thio]decyl}imidazolidine-2,4-dione], in assay [1], the IC50 was over 10 µM.
Consider `Cc1cc(N2C(=O)N(CCCCCCCCCSCCCC(F)(F)C(F)(F)F)C(C)(C)C2=O)ccc1NS(N)(=O)=O` [Example 30, N-[4-(4,4-dimethyl-2,5-dioxo-3-{9-[(4,4,5,5,5-pentafluoropentyl)sulphanyl]nonyl}imidazolidin-1-yl)-2-methylphenyl]sulphamide], for which the results for the IC50 in assay [2] and in assay [1] were under 2 µM and over 10 µM, respectively.
Taken in the same sequence, the figures for `Cc1cc(N2C(=O)N(CCCCCCCCC[S+]([O-])CCCC(F)(F)C(F)(F)F)C(C)(C)C2=O)ccc1[N+](=O)[O-]` (stereo not drawn) [Example 24, 5,5-dimethyl-3-(3-methyl-4-nitrophenyl)-1-{9-[(4,4,5,5,5-pentafluoropentyl)sulphinyl]nonyl}imidazolidine-2,4-dione] were under 2 µM and over 10 µM.
With `CC1(C)C(=O)N(c2ccc([N+](=O)[O-])cc2C(F)(F)F)C(=O)N1CCCCCCCCC[S+]([O-])CCCC(F)(F)C(F)(F)F` (stereo not drawn) [Example 35, 5,5-dimethyl-3-[4-nitro-2-(trifluoromethyl)phenyl]-1-{9-[(4,4,5,5,5-pentafluoropentyl)sulphinyl]nonyl}imidazolidine-2,4-dione], the IC50 in assay [1] was over 10 µM.
As for `Cc1cc(N2C(=O)N(CCCCCCCCC[S+]([O-])CCCC(F)(F)C(F)(F)F)C(C)(C)C2=O)ccc1N` (stereo not drawn) [Example 26, 3-(4-amino-3-methylphenyl)-5,5-dimethyl-1-{9-[(4,4,5,5,5-pentafluoropentyl)sulphinyl]nonyl}imidazolidine-2,4-dione], the IC50 in assay [1] is over 10 µM.
On the same count and under the same terms, the figure for `CC1(C)C(=O)N(c2ccc([N+](=O)[O-])c(C(F)(F)F)c2)C(=O)N1CCCCCCCCCC[S+]([O-])CCCC(F)(F)C(F)(F)F` (stereo not drawn) [Example 9, 5,5-dimethyl-3-[4-nitro-3-(trifluoromethyl)phenyl]-1-{10-[(4,4,5,5,5-pentafluoropentyl)sulphinyl]decyl}imidazolidine-2,4-dione] is over 10 µM.
`CC1(C)C(=O)N(c2ccc([N+](=O)[O-])c(C(F)(F)F)c2)C(=O)N1CCCCCSCCCC(F)(F)C(F)(F)F` [Example 4, 5,5-dimethyl-3-[4-nitro-3-(trifluoromethyl)phenyl]-1-{5-[(4,4,5,5,5-pentafluoropentyl)thio]pentyl}imidazolidine-2,4-dione]: the figures for the IC50 in assay [2] and in assay [1] were under 2 µM and over 10 µM, respectively.
On to `CC1(C)C(=O)N(c2ccc([N+](=O)[O-])c(C(F)(F)F)c2)C(=O)N1CCCCCCCCC[S+]([O-])CCCC(F)(F)C(F)(F)F` (stereo not drawn) [Example 2, 5,5-dimethyl-3-[4-nitro-3-(trifluoromethyl)phenyl]-1-{9-[(4,4,5,5,5-pentafluoropentyl)sulphinyl]nonyl}imidazolidine-2,4-dione], for which the IC50 in assay [1] was over 10 µM.
`CC1(C)C(=O)N(c2ccc([N+](=O)[O-])c(C(F)(F)F)c2)C(=O)N1CCCCCCCCC/S(CCCC(F)(F)C(F)(F)F)=N/C(=O)C(F)(F)F` (stereo not drawn) [Example 44, N-[(1Z)-(9-{5,5-dimethyl-3-[4-nitro-3-(trifluoromethyl)phenyl]-2,4-dioxoimidazolidin-1-yl}nonyl)(4,4,5,5,5-pentafluoropentyl)-λ^4-sulphanylidene]-2,2,2-trifluoroacetamide]: in assay [1], the IC50 is over 10 µM.
Same read-out and setting: the figure for `CC1(C)C(=O)N(c2ccc([N+](=O)[O-])c(C(F)(F)F)c2)C(=O)N1CCCCCCCCCSCCC(F)(F)C(F)(F)C(F)(F)C(F)(F)F` [Example 14, 5,5-dimethyl-3-[4-nitro-3-(trifluoromethyl)phenyl]-1-{9-[(3,3,4,4,5,5,6,6,6-nonafluorohexyl)thio]nonyl}imidazolidine-2,4-dione] is over 10 µM; for `CC1(C)C(=O)N(c2ccc([N+](=O)[O-])c(C(F)(F)F)c2)C(=O)N1CCOCCOCCSCCCC(F)(F)C(F)(F)F` [Example 36, 5,5-dimethyl-3-[4-nitro-3-(trifluoromethyl)phenyl]-1-[2-(2-{2-[(4,4,5,5,5-pentafluoropentyl)sulphanyl]ethoxy}ethoxy)ethyl]imidazolidine-2,4-dione] it is over 10 µM.
